Measurements published in patent US20240033237A1, “USE OF A-KETOGLUTARATE IN MANUFACTURE OF MEDICAMENT” (TONGJI UNIVERSITY, priority 2019, published 2024).

Experiments:
NF-κB signaling pathway = assay: Activation of NF-κB signaling pathway in IL-1β-stimulated chondrocytes (whole-genome sequencing, nuclear P65 western blot); format: cell-based, mouse
Experimental: Mouse chondrocytes were obtained from 7-day-old C57BL/6 mice (Shanghai Slac laboratory animal Co., Ltd.), and the procedure was as follows: under aseptic surgical conditions, bilateral knee cartilages of C57 mice were carefully stripped and digested with 0.2% neutral collagenase (Serva, Germany) for 8 h; cell precipitates were obtained by centrifugation, and the cells were resuspended in modified Eagle medium (DMEM) (Gibco, USA) containing 10% FBS, inoculated in culture dishes, and cultured with high-sugar DMEM medium (containing 10% FBS, 100 U/mL penicillin and 100 mg/L streptomycin) at 37° C. in a 5% CO2 constant temperature incubator. The medium was changed for the first time at 48 h. […] The cells were collected by centrifugation and resuspended, and the concentration was adjusted for inoculation in culture dishes. The cells were subcultured by the above method, and the obtained cells were labeled as P1, P2, P3 generations, etc. P1 generation mouse chondrocytes cultured in Embodiment 1 were subjected to western blot analysis through operations including the following: • 1. Collecting of protein samples: The culture medium was sucked out, and the cells were washed twice with PBS at 4° C. and then dried. […] The protein concentration was determined by the BCA Protein Quantification Kit. […]

skin hair follicles = assay: Regeneration level of skin hair follicles in mice, intradermal injection, histological staining; format: in vivo; conditions: 12-month-old mice, 4 weeks after injection, vs PBS group
Experimental: The skin on the back of posterior limbs of 12-month-old aged mice was taken, and the treatment group was intradermally injected with PBS-diluted α-KG (1 μl of dimethyl-α-KG dissolved in 4 μl of PBS). A sham operation was performed and PBS was injected as a control. Histological staining was performed to observe the changes of skin hair follicles at 4 weeks after injection.

With COC(=O)CCC(=O)C(=O)OC [α-KG, dimethyl-α-ketoglutarate] the “expression of P65 in the NF-κB signaling pathway in the nucleus” value (NF-κB signaling pathway; western blot, IL-1β 0 min, 15 min, 30 min, 60 min, 7 mM α-KG) was “significantly inhibited”, the “expression of many genes in the NF-κB signaling pathway” value (NF-κB signaling pathway; whole-genome sequencing, IL-1β stimulation, α-KG complemented) was “suppressed” and the “number of skin hair follicles” value (skin hair follicles) was “significantly increased”.
